Data as given in US7041461B2 (H. Lundbeck A/S, priority 1998, dated 2006).
Entries after “also recorded” stand apart in the source; their conditions may differ. Like-named read-outs stand apart in the source and are kept apart here. Non-standard residues stand in square brackets, D forms with d. Residues, ends and D or L forms follow the SMILES beside them. No end group written: not given here. NMeF = CN[C@@H](Cc1ccccc1)C(=O)O

B1: CCK: unrelated neuropeptide (peptide, UniProt P06307 21-115, looked up)
Cholecystokinin: QPVPPADPAGSGLQRAEEAPRRQLRVSQRTDGESRAHLGALLARYIQQARKAPSGRMSIVKNLQNLDPSHRISDRDYMGWMDFGRRSAEEYEYPS
modifications: Cholecystokinin
notes: unrelated neuropeptide

Tests used:
[1] = target: rat spinal cord membrane receptor; experiment: Radioligand binding to rat spinal cord membranes; conditions: * marks difference from NPFF1
Procedure: (§1) Transfected cells from culture flasks are scraped into 5 ml of 20 mM Tris-HCl, 5 mM EDTA, pH 7.5, and lysed by sonication. The cell lysates are centrifuged at 1000 rpm for 5 min. at 4° C., and the supernatant is centrifuged at 30,000× g for 20 min. at 4° C. […] Optimal membrane suspension dilutions, defined as the protein concentration required to bind less than 10% of the added radioligand, are added to 96-well polpropylene microtiter plates containing ^3H-labeled compound, unlabeled compounds, and binding buffer to a final volume of 250 μl. In equilibrium saturation binding assays membrane preparations are incubated in the presence of increasing concentrations of [^3H]-labeled compound.
(§2) Competition assay: 50 pM radioligand, 10–12 points. Binding reaction mixtures are incubated for 2 hr at 25° C., and the reaction stopped by filtration through a double layer of GF filters treated with 0.1% polyethyleneimine, using a cell harvester. Wash buffer: 50 mM Tris-HCl, 0.1% BSA. Radioactivity may be measured by scintillation counting and data are analyzed by a computerized non-linear regression program. Non-specific binding is defined as the amount of radioactivity remaining after incubation of membrane protein in the presence of 1 μM final concentration […]. Protein concentration may be measured by the Bradford method using Bio-Rad Reagent, with bovine serum albumin as a standard.
The binding profile of rat NPFF1 was compared to that of rat spinal cord membranes. […] (See * Table 2).

[2] = target: T1, cloned rat NPFF1 receptor (Rattus norvegicus, UniProt Q9EP86); experiment: Radioligand binding to cloned rat NPFF1 receptor, membranes of transiently transfected COS-7 cells
T1 construct: expressed in transfected cells; host or cells: COS-7 cells, transient; membranes
Procedure: as §1, with “[…],” for “are added to 96-well polpropylene microtiter plates containing ^3H-labeled compound,”
as §2
Cos-7 cells transiently expressing the gene encoding the novel rat NPFF1 receptor were used for pharmacological evaluation. […]

SNORF2 (NPFF1) = target: T2, SNORF2 (NPFF1) (Rattus norvegicus, UniProt Q9EP86); experiment: Voltage-clamp electrophysiology in Xenopus oocytes expressing SNORF2 (NPFF1) and chimeric Gαq/z; type: cell-based; conditions: for activation of oocytes injected with SNORF2 synthetic RNA: unrelated neuropeptides and neurotransmitters, concentration not given; for inward current response: 1 μM, oocytes with SNORF2 and Gαq/z, holding potential −80 mV
T2 construct: from linearized plasmids or PCR products containing the complete coding region of the genes; expressed in transfected cells; host or cells: Xenopus laevis oocytes injected with synthetic RNA
Procedure: (§3) Oocytes were harvested from Xenopus laevis and injected with mRNA transcripts as previously described (Quick and Lester, 1994; Smith et al., 1997). […] Three to eight hours prior to recording, oocytes were injected with 500 pg Gαq/z mRNA in order to observe coupling to Ca^++ activated Cl^− currents. Dual electrode voltage clamp (Axon Instruments Inc.) was performed using 3 M KCl-filled glass microelectrodes having resistances of 1–2 Mohm. Unless otherwise specified, oocytes were voltage clamped at a holding potential of −80 mV. During recordings, oocytes were bathed in continuously flowing (1–3 ml/min) medium containing 96 mM NaCl, 2 mM KCl, 1.8 mM CaCl2, 1 mM MgCl2, and 5 mM HEPES, pH 7.5 (ND96). Drugs were applied either by local perfusion from a […] glass capillary tube fixed at a distance of 0.5 mm from the oocyte, or by switching from a series of gravity fed perfusion lines.
Heterologous expression of GPCRs in Xenopus oocytes has been widely used to determine the identity of signaling pathways activated by agonist stimulation (Gundersen et al., 1983; Takahashi et al., 1987). Activation of the phospholipase C (PLC) pathway is assayed by applying test compound in ND96 solution to oocytes previously injected with mRNA for the mammalian receptor and observing inward currents at a holding potential of −80 mV. The appearance of currents that reverse at −25 mV and display other properties of the Ca^++-activated Cl^− (chloride) channel is indicative of mammalian receptor-activation of PLC and release of IP3 and intracellular Ca^++.
Control oocytes receiving only G-protein synthetic RNA were unresponsive to these peptides. […] Similarly, SNORF2-like was renamed NPFF-like.

NPFF receptors = conditions: at a concentration of 10 μM; spinal cord membranes; cited from earlier work
NPFF2 (hNPFF2) = target: T3, NPFF2 (hNPFF2) (Homo sapiens, UniProt Q9Y5X5); experiment: Voltage-clamp electrophysiology in Xenopus oocytes expressing NPFF2 (NPFF-like) and chimeric Gαq/z; type: cell-based; conditions: 1 μM; oocytes with NPFF2 (NPFF-like) mRNA and Gαq/z; −80 mV
T3 construct: BO89, was determined to be a full length clone with no point mutations; expressed in transfected cells; host or cells: Xenopus laevis oocytes injected with synthetic mRNA
Procedure: Electrophysiological responses in voltage-clamped oocytes expressing NPFF2 mRNA. […] Oocytes were clamped at a holding potential of −80 mV.
For expression of NPFF2, mRNA transcripts were generated as described for NPFF1, using PCR products from ligation reactions or linearized DNA from B089 as DNA templates. Oocytes were injected with 5–50 ng NPFF2 mRNA and incubated as previously described.
as §3

[3] = competition of [125I]D-Tyr-NPFF binding, transiently transfected COS-7 membranes
[4] = competition of [125I]D-Tyr-NPFF binding, transiently transfected COS-7 membranes, read-out: pKi for cloned rat NPFF1 receptor binding in COS-7 cells, MEAN (converted)

T1 sequence (Q9EP86 whole entry): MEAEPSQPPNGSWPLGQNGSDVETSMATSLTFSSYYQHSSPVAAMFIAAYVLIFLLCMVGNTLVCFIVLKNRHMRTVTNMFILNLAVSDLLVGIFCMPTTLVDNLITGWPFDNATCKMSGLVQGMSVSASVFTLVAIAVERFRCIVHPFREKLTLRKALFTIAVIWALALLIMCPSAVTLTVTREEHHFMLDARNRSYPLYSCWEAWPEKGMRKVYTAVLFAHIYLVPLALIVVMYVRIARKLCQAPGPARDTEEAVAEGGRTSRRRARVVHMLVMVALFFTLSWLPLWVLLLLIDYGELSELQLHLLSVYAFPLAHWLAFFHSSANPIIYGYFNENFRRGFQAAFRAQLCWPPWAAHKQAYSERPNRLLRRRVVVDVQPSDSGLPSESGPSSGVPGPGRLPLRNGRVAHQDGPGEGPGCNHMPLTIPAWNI
T2 sequence (Q9EP86 whole entry): as above
T3 sequence (Q9Y5X5 103-522): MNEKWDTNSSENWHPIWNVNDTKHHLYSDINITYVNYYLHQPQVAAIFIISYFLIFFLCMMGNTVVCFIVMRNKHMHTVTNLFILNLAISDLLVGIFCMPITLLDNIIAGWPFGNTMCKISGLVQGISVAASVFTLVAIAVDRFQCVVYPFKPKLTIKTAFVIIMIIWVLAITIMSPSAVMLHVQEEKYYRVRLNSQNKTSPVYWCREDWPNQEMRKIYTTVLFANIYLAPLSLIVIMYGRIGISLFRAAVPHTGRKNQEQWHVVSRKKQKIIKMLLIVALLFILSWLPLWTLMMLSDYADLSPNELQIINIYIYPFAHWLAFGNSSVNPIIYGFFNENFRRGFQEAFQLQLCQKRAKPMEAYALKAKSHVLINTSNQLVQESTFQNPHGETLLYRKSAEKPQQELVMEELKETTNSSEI

Molecule | pKi for rat spinal cord membrane receptor binding, MEAN [1] | pKi for cloned rat NPFF1 receptor binding in COS-7 cells, MEAN [2, 3] | further results
NCCc1ccc(O)c(O)c1 [dopamine] | 5.000 | 5.000 | 
C[C@@H]1CN([C@H]2CC[C@](C#N)(c3ccc(F)cc3)CC2)CC[C@]1(C(=O)O)c1ccccc1 [levocabastine] | 5.000 | 5.000 | 
YLFQPQRF-NH2 [Y8Fa] [listing 1 of 2 here] |  |  | Ki [2, 4]: 4.15 nM
CNCCCN1c2ccccc2CCc2ccccc21 [desipramine] | 5.000 | 5.000 | 
orexin B: unrelated neuropeptide |  |  | activation of oocytes injected with SNORF2 synthetic RNA (SNORF2 (NPFF1)): failed to activate
substance P | 5.000 |  | inhibition of [125I](1DMe)Y8Fa binding (NPFF receptors): No inhibition
TEPGLEEVGEIEQKQLQ [nocistatin] | 5.000 |  | 
AGEGLSSPYWSLAAPQRF-NH2 [[Y^9]A18Fa] |  |  | inward current response (SNORF2 (NPFF1)): displayed activity; Ki [2, 4]: 27.7 nM
Cc1nc2sccn2c(=O)c1CCN1CCC(=C(c2ccc(F)cc2)c2ccc(F)cc2)CC1 [ritanserine] | 5.000 | 5.000 | 
melanin concentrating hormone: unrelated neuropeptide |  |  | activation of oocytes injected with SNORF2 synthetic RNA (SNORF2 (NPFF1)): failed to activate
YLFQPQRF-NH2 [Y8Fa] [listing 2 of 2 here] |  |  | inward current response (SNORF2 (NPFF1)): displayed activity
CSCC[C@H](NC(=O)[C@H](Cc1ccc(OS(=O)(=O)O)cc1)NC(=O)[C@@H](N)CC(=O)O)C(=O)NCC(=O)N[C@@H](Cc1c[nH]c2ccccc12)C(=O)N[C@@H](CCSC)C(=O)N[C@@H](CC(=O)O)C(=O)N[C@@H](Cc1ccccc1)C(N)=O [CCK8] | 5.000 |  | 
orexin A: unrelated neuropeptide (QPLPDCCRQKTCSCRLYELLHGAGNHAAGILTL; ends and bridges not checked; cysteine pairing not given here; UniProt O43612 34-66, looked up) |  |  | inward current response (NPFF2 (hNPFF2)): failed to activate responses; also recorded: no response is observed
NCCc1c[nH]c2ccc(O)cc12 [5-HT] |  |  | activation of oocytes injected with SNORF2 synthetic RNA (SNORF2 (NPFF1)): failed to activate
CC(C)C[C@H](NC(=O)[C@H](CCCCN)NC(=O)[C@H](CCCN=C(N)N)NC(=O)[C@H](C)NC(=O)[C@H](CO)NC(=O)[C@H](CCCCN)NC(=O)[C@H](CCCN=C(N)N)NC(=O)[C@H](C)NC(=O)CNC(=O)[C@@H](NC(=O)[C@H](Cc1ccccc1)NC(=O)CNC(=O)CNC(=O)[C@@H](N)Cc1ccccc1)[C@@H](C)O)C(=O)N[C@@H](C)C(=O)N[C@@H](CC(N)=O)C(=O)N[C@@H](CCC(N)=O)C(=O)O [nociceptin] | 5.000 | 5.000 | activation of oocytes injected with SNORF2 synthetic RNA (SNORF2 (NPFF1)): failed to activate
N=C(N)NCCC[C@@H](N)C(=O)O [D-arginine] | 5.000 | 5.000 | 
NPY: unrelated neuropeptide |  |  | inward current response (NPFF2 (hNPFF2)): failed to activate responses; also recorded: no response is observed; inhibition of [125I](1DMe)Y8Fa binding (NPFF receptors): No inhibition
CN1CC[C@]23c4c5ccc(O)c4O[C@H]2[C@@H](O)C=C[C@H]3[C@H]1C5 [morphine] |  |  | inhibition of [125I](1DMe)Y8Fa binding (NPFF receptors): No inhibition
ibogaine | 5.000 |  | 
PDVDHVFLRF-NH2 [SchistFLRF] |  |  | Ki [2]: 1100 nM
CSCC[C@H](NC(=O)[C@@H]1CCCN1)C(=O)N[C@@H](CCCNC(=N)N)C(=O)N[C@@H](Cc1ccccc1)C(N)=O [PMRFa] (H-PMRF-NH2; N-terminus assumed) |  |  | Ki [2, 4]: 2.82 nM
PYY: unrelated neuropeptide |  |  | activation of oocytes injected with SNORF2 synthetic RNA (SNORF2 (NPFF1)): failed to activate
CCNC(C)Cc1cccc(C(F)(F)F)c1 (stereo not shown) [fenfluramine] | 5.000 | 5.000 | 
neurokinin A: unrelated neuropeptide |  |  | inward current response (NPFF2 (hNPFF2)): failed to activate responses; also recorded: no response is observed
N=C(N)NCCC[C@H](N)C(=O)O [L-arginine] | 5.000 | 5.000 | 
COc1ccc2c(c1)[nH]c1c(C)nccc12 [harmine] | 5.000 | 5.000 | 
CC(C)C[C@@H](NC(=O)[C@H](N)Cc1ccc(O)cc1)C(=O)N[C@H](Cc1ccccc1)C(=O)N[C@@H](CCC(N)=O)C(=O)N1CCC[C@H]1C(=O)N[C@@H](CCC(N)=O)C(=O)N[C@@H](CCCNC(=N)N)C(=O)N[C@@H](Cc1ccccc1)C(N)=O [(3D)Y8Fa] (H-[dY][dL][dF]QPQRF-NH2; N-terminus assumed) |  |  | Ki [2, 4]: 2.38 nM
a-MSH | 5.000 |  | 
CC(C)C[C@H](NC(=O)[C@H](N)Cc1ccc(O)cc1)C(=O)N(C)[C@@H](Cc1ccccc1)C(=O)N[C@@H](CCC(N)=O)C(=O)N1CCC[C@H]1C(=O)N[C@@H](CCC(N)=O)C(=O)N[C@@H](CCCN=C(N)N)C(=O)N[C@@H](Cc1ccccc1)C(N)=O [(D-Tyr^1-(NMe)Phe^3)NPFF] (H-[dY]L[NMeF]QPQRF-NH2) |  |  | Ki [2, 4]: 2.82 nM
B1 |  |  | activation of oocytes injected with SNORF2 synthetic RNA (SNORF2 (NPFF1)): failed to activate
